# Test results reported in patent publication US20030017186A1, “Carboxylic acid fluorides as pesticides” (priority 1999, published 2003).
# What was measured:
# [1] = tested on: House longhorn beetle (Hylotrupes bajulus); experiment: Fumigation test in glass vessel, house longhorn beetles; assay type: in vivo; settings: HYLOBA beetles
# From the text: (§1) b1) House longhorn beetle (Hylotrupes bajulus)=HYLOBA
# (§2) The test organisms, separated by species, were placed into a glass vessel measuring 30 cm×30 cm×60 cm, which was sealed with a glass lid so as to be airtight. The adults and the larvae of the mealworm beetle (Tenebrio molitor) and the broad-horned flour beetle (Gnathocerus cornutus) were placed into small glass vessels approximately 5 cm in diameter, which were closed with a gauze lid and in which they could freely move about. The larvae of the rice weevil had burrowed into seeds of grain. The wood pest larvae were inserted into small blocks of wood measuring 5 cm×2.5 cm×2 cm. The openings were sealed with wads of cotton wool. Only one each of the larvae of the house longhorn beetle (Hylotrupes bajulus) was inserted into a piece of wood, while 6-8 larvae of the common furniture beetle (Anobium punctatum) were inserted into each piece of wood.
# (§3) The respective gas was then introduced into the fumigation vessel through a gas line from a gas tank that contained the specified amount of gas. After a defined time period, the fumigation vessel was purged with compressed air. The discharged gas was purified by an attached gas scrubber.
# (§4) The beetles were observed until they died. This point was recorded for each species. The larvae of the wood pests as well as the larvae of the rice weevil (Sitophilus oryzae) had to be picked out of the wood or the grain to check their condition. If any of the animals were still alive, the wooden test blocks remaining in the vessel were fumigated again and were reexamined after the corresponding time span had elapsed. The same number of animals in the untreated control was also checked at each point.
# (§5) The vitality of the animals was checked at certain time intervals. The beetles could be observed through the fumigation vessel. This was also true for the larvae of the mealworm beetle and the broad-horned flour beetle. The wooden test blocks of the wood pest larvae were opened with hammer and chisel. Tweezers were used to pull the rice weevil larvae out of the grain seeds. The exact time intervals and the number of the evaluated pests were documented in the test results.
# [2] = tested on: House longhorn beetle (Hylotrupes bajulus) larvae; experiment: Fumigation test in glass vessel, house longhorn beetle larvae in wood blocks; assay type: in vivo; settings: HYLOBA larvae in wood blocks
# From the text: as §1, §2, §3, §4, §5
# [3] = tested on: Common furniture beetle (Anobium punctatum); experiment: Fumigation test in glass vessel, common furniture beetles; assay type: in vivo; settings: ANOBPU beetles
# From the text: (§6) b2) Common furniture beetle (Anobium punctatum)=[…]
# as §2, §3, §4, §5
# [4] = tested on: Common furniture beetle (Anobium punctatum) larvae; experiment: Fumigation test in glass vessel, common furniture beetle larvae in wood blocks; assay type: in vivo; settings: ANOBPU larvae in wood blocks
# From the text: as §6, §2, §3, §4, §5
# [5] = tested on: Mealworm beetle (Tenebrio molitor); experiment: Fumigation test in glass vessel, mealworm beetles; assay type: in vivo; settings: TENEMO beetles; Example 3; gas 45.8 g/m^3, 17.2° C. (1st fumigation), 45.4 g/m^3, 17.7° C. (2nd); 54% rel. air humidity
# From the text: (§7) a1) Mealworm beetle (Tenebrio molitor)=TENEMO
# as §2, §3, §4, §5
# [6] = tested on: Mealworm beetle (Tenebrio molitor) larvae; experiment: Fumigation test in glass vessel, mealworm beetle larvae; assay type: in vivo; settings: TENEMO larvae; Example 3; gas 45.8 g/m^3, 17.2° C. (1st fumigation), 45.4 g/m^3, 17.7° C. (2nd); 54% rel. air humidity
# From the text: as §7, §2, §3, §4, §5
# [7] = tested on: Rice weevil (Sitophilus oryzae); experiment: Fumigation test in glass vessel, rice weevils; assay type: in vivo; settings: SITTOR beetles; Example 3; gas 45.8 g/m^3, 17.2° C. (1st fumigation), 45.4 g/m^3, 17.7° C. (2nd); 54% rel. air humidity
# From the text: (§8) a2) Rice weevil (Sitophilus oryzae)=SITTOR
# as §2, §3, §4, §5
# [8] = tested on: Rice weevil (Sitophilus oryzae) larvae; experiment: Fumigation test in glass vessel, rice weevil larvae in grain seeds; assay type: in vivo; settings: SITTOR larvae in grain seeds; Example 3; gas 45.8 g/m^3, 17.2° C. (1st fumigation), 45.4 g/m^3, 17.7° C. (2nd); 54% rel. air humidity
# From the text: as §8, §2, §3, §4, §5
# [9] = tested on: Broad-horned flour beetle (Gnathocerus cornutus); experiment: Fumigation test in glass vessel, broad-horned flour beetles; assay type: in vivo; settings: GNATCO beetles; Example 3; gas 45.8 g/m^3, 17.2° C. (1st fumigation), 45.4 g/m^3, 17.7° C. (2nd); 54% rel. air humidity
# From the text: (§9) a3) Broad-horned flour beetle (Gnathocerus cornutus)=GNATCO
# as §2, §3, §4, §5
# [10] = tested on: Broad-horned flour beetle (Gnathocerus cornutus) larvae; experiment: Fumigation test in glass vessel, broad-horned flour beetle larvae; assay type: in vivo; settings: GNATCO larvae; Example 3; gas 45.8 g/m^3, 17.2° C. (1st fumigation), 45.4 g/m^3, 17.7° C. (2nd); 54% rel. air humidity
# From the text: as §9, §2, §3, §4, §5
# [11] = tested on: Saw-toothed grain beetle (Oryzaephilus surinamensis); experiment: Fumigation test in glass vessel, saw-toothed grain beetles; assay type: in vivo; settings: ORYZSA beetles; Example 3; gas 45.8 g/m^3, 17.2° C. (1st fumigation), 45.4 g/m^3, 17.7° C. (2nd); 54% rel. air humidity
# From the text: a4) Saw-toothed grain beetle (Oryzaephilus surinamensis)=ORYZSA
# as §2, §3, §4, §5
# [12] = tested on: wood pests (house longhorn beetle, common furniture beetle); experiment: Fumigation test, wood pests; assay type: in vivo, Hylotrupes bajulus, Anobium punctatum
# From the text: as §2, §3, §4, §5
# wood and storage pests = experiment: Fumigation test, wood and storage pests (overall statements); assay type: in vivo; settings: Conclusion of Examples 1-5
# From the text: as §2, §3, §4, §5
# [13] = Example 1, gas 54.8 g/m^3, 16° C. (1st fumigation), 58.0 g/m^3, 13° C. (2nd), 66% rel. air humidity
# [14] = Example 2, ventilator operation in vessel, gas 57.6 g/m^3, 20.6° C. (1st fumigation), 48.0 g/m^3, 21.5° C. (2nd)
structure (smiles),measurement,setting,value
"O=C(F)C(F)(F)F [Trifluoroacetyl Fluoride, Trifluoroacetyl fluoride]","Number alive, 1 hr. after Start of Fumigation",[1]; [13],2
same,"Number alive, 3 hrs. after Start of Fumigation",[1]; [13],0
same,"Number dead, 1 hr. after Start of Fumigation",[1]; [13],4
same,"Number dead, 3 hrs. after Start of Fumigation",[1]; [13],6
same,"Number alive, 1 hr. after Start of Fumigation",[1]; [14],1
same,"Number alive, 12 hrs. after Start of Fumigation",[1]; [14],0
same,"Number dead, 1 hr. after Start of Fumigation",[1]; [14],5
same,"Number dead, 12 hrs. after Start of Fumigation",[1]; [14],6
same,"Number alive, 24 hrs. after Start of Fumigation",[2]; [13],6
same,"Number alive, 48 hrs. after Start of Fumigation",[2]; [13],3
same,"Number dead, 24 hrs. after Start of Fumigation",[2]; [13],0
same,"Number dead, 48 hrs. after Start of Fumigation",[2]; [13],3
same,"Number alive, 12 hrs. after Start of Fumigation",[2]; [14],7
same,"Number alive, 24 hrs. after Start of Fumigation",[2]; [14],7
same,"Number alive, 48 hrs. after Start of Fumigation",[2]; [14],6
same,"Number dead, 12 hrs. after Start of Fumigation",[2]; [14],0
same,"Number dead, 24 hrs. after Start of Fumigation",[2]; [14],0
same,"Number dead, 48 hrs. after Start of Fumigation",[2]; [14],1
same,"Number alive, 1 hr. after Start of Fumigation",[3]; [13],0
same,"Number dead, 1 hr. after Start of Fumigation",[3]; [13],6
same,"Number alive, 1 hr. after Start of Fumigation",[3]; [14],0
same,"Number dead, 1 hr. after Start of Fumigation",[3]; [14],6
same,"Number alive, 24 hrs. after Start of Fumigation",[4]; [13],10
same,"Number alive, 48 hrs. after Start of Fumigation",[4]; [13],6
same,"Number dead, 24 hrs. after Start of Fumigation",[4]; [13],0
same,"Number dead, 48 hrs. after Start of Fumigation",[4]; [13],4
same,"Number alive, 12 hrs. after Start of Fumigation",[4]; [14],11
same,"Number alive, 24 hrs. after Start of Fumigation",[4]; [14],10
same,"Number alive, 48 hrs. after Start of Fumigation",[4]; [14],0
same,"Number dead, 12 hrs. after Start of Fumigation",[4]; [14],1
same,"Number dead, 24 hrs. after Start of Fumigation",[4]; [14],2
same,"Number dead, 48 hrs. after Start of Fumigation",[4]; [14],12
same,"Number alive, 1 hr. after Start of Fumigation",[5],0
same,"Number dead, 1 hr. after Start of Fumigation",[5],15
same,"Number alive, 1 hr. after Start of Fumigation",[6],0
same,"Number dead, 1 hr. after Start of Fumigation",[6],15
same,"Number alive, 1 hr. after Start of Fumigation",[7],0
same,"Number dead, 1 hr. after Start of Fumigation",[7],20
same,"Number alive, 1 hr. after Start of Fumigation",[8],5
same,"Number alive, 3 hrs. after Start of Fumigation",[8],0
same,"Number dead, 1 hr. after Start of Fumigation",[8],15
same,"Number dead, 3 hrs. after Start of Fumigation",[8],20
same,"Number alive, 1 hr. after Start of Fumigation",[9],0
same,"Number dead, 1 hr. after Start of Fumigation",[9],15
same,"Number alive, 1 hr. after Start of Fumigation",[10],0
same,"Number dead, 1 hr. after Start of Fumigation",[10],15
same,"Number alive, 1 hr. after Start of Fumigation",[11],0
same,"Number dead, 1 hr. after Start of Fumigation",[11],15
same,Time after which the animals became very active,"[12]; Example 1, exposed beetles and larvae, gas 54.8 g/m^3, 16° C.",1 to 2 min
same,"Time after which all the beetles lay on their backs, only legs and feelers moving slightly","[12]; Example 1, exposed beetles, gas 54.8 g/m^3, 16° C.",about 10 minutes
same,Penetration of the wood to kill the larvae completely,"[12]; Example 1, larvae in wooden test blocks, within a time span of 48 hours",does not penetrate the wood sufficiently
same,Time after which larvae without wooden test blocks were dead,"[12]; Example 1, larvae without wooden test blocks, gas 54.8 g/m^3, 16° C.",approximately 1 hour
same,Effectiveness with respect to the larvae with ventilators,"[12]; Example 2, air circulation through ventilators, compared with Example 1",no improvement in the effectiveness
same,Effectiveness against exposed beetles and larvae,wood and storage pests,very effective
